Results: patent publication US8252326B2, “Self-microemulsifying dosage forms of low solubility active ingredients such as co-enzyme Q10” (Catalent Australia Pty Ltd., priority 2005, dated 2012)

Columns and labels:
[1] = Solubility of coenzyme Q10 in oils, surfactants and co-surfactants; type: physicochemical
Protocol: To determine suitable excipient systems for actives, solubility studies were carried out on a variety of constituents of the inventive SMEDDS formulations. The solubility of Q10 in various oils, surfactants and co-surfactants were determined by placing an excess of the Q10 (approximately 2.5 g) in 22.5 g of the vehicle in screw capped glass bottles and heating the mixture to 55° C. in a water bath to facilitate the solubilization. Mixtures were equilibrated at room temperature for 24 hours and then filtered through 0.45 μm membrane filter to separate the undissolved drug. One gram of the filtered liquid mixtures were then weighed and diluted with cyclohexane and quantified by UV/Visible Spectrometry. Lemon oil and isopropyl myristate provided higher solubility than other oils. Although not limited to a theory of operation, it is believed that the oils form a distinct core in the interior of the surfactant aggregate when being dispersed in water, resulting in enhanced solubilizing capacity of the oils with improved drug loading capabilities of the emulsion.

[2] = cited from earlier work

- Solubility of coenzyme Q10 (% w/w) ([1]; in Acetylated monoglycerides, room temperature 24 hours): 7.5 % w/w
- Solubility of coenzyme Q10 (% w/w) ([1]; in Capmul MCM C8, room temperature 24 hours): 1.50 % w/w
- Solubility of coenzyme Q10 (% w/w) ([1]; in Glyceryl mono-oleate, room temperature 24 hours): 2.41 % w/w
- Solubility of coenzyme Q10 (% w/w) ([1]; in Isopropyl myristate, room temperature 24 hours): 11.2 % w/w
- Solubility of coenzyme Q10 (% w/w) ([1]; in Labrafac Hydro WL1219, room temperature 24 hours): 3.17 % w/w
- Solubility of coenzyme Q10 (% w/w) ([1]; in Labrafil M 1944, room temperature 24 hours): 5.91 % w/w
- Solubility of coenzyme Q10 (% w/w) ([1]; in Labrafil M 2125, room temperature 24 hours): 5.35 % w/w
- Solubility of coenzyme Q10 (% w/w) ([1]; in Lauroglyco 1 FCC, room temperature 24 hours): 3.05 % w/w
- Solubility of coenzyme Q10 (% w/w) ([1]; in Lauroglyco 190, room temperature 24 hours): 3.06 % w/w
- Solubility of coenzyme Q10 (% w/w) ([1]; in Lemon oil, equilibrated at room temperature 24 hours, 0.45 μm filtered): 24.3 % w/w
- Solubility of coenzyme Q10 (% w/w) ([1]; in Medium chain triglycerides, room temperature 24 hours): 3.74 % w/w
- Solubility of coenzyme Q10 (% w/w) ([1]; in Oleic acid, room temperature 24 hours): 3.80 % w/w
- Solubility of coenzyme Q10 (% w/w) ([1]; in PEG 35 Castor oil, room temperature 24 hours): 2.34 % w/w
- Solubility of coenzyme Q10 (% w/w) ([1]; in Polysorbate 80, room temperature 24 hours): 0.370 % w/w
- Solubility of coenzyme Q10 (% w/w) ([1]; in Polysorbate 85, room temperature 24 hours): 1.57 % w/w
- Solubility of coenzyme Q10 (% w/w) ([1]; in Span 80, room temperature 24 hours): 3.24 % w/w
- Solubility of coenzyme Q10 (% w/w) ([1]; in Transcutol P, room temperature 24 hours): 0.260 % w/w
SMILES: COC1=C(OC)C(=O)C(C/C=C(\C)CC/C=C(\C)CC/C=C(\C)CC/C=C(\C)CC/C=C(\C)CC/C=C(\C)CC/C=C(\C)CC/C=C(\C)CC/C=C(\C)CCC=C(C)C)=C(C)C1=O [Coenzyme Q10]
- Solubility in water [2]: practically insoluble in water
